Data: US8658382B2, “Proteins with pteridine glycosyltransferase activity and analysis method using the same” (Inje University Industry-Academic Cooperation Foundation, priority 2008, dated 2014)

Assays:
BGluT = assay: Pteridines as substrate or competitive inhibitor of the BGluT reaction; assay type: biochemical, Synechococcus sp. PCC 7942; conditions: for glucosylated product formed from the pteridine as substrate of BGluT: pteridine concentration increased to 5 μM, data not shown
Protocol: Unless otherwise specified, the following standard reaction conditions were used for the determination of tetrahydrobiopterin and its oxidized forms. Reactions were carried out in a final volume of 100 μl, which consisted of 50 mM Tris-HCl (pH 7.5), 10 mM MgCl2, 0.05% ascorbic acid, 500 μM UDP-glucose, 1 μg of BGluT, and an aliquot of pteridines or tissue extracts. The reaction mixture was incubated for 20 minutes at 37° C. and then mixed with 30 μl of acidic iodine solution (2% KIM % I2 in 1 N HCl). After 1 hour in the dark at room temperature, the oxidized mixture was centrifuged. The supernatant was mixed with 10 μl of 5% ascorbic acid and then neutralized with 30 μl of 1 N NaOH for injection to HPLC.
(§1) The HPLC system consisted of Gilson 321 pump, Gilson 234 autoinjector, a fluorescence detector (Schimadzu RF-10AXL), and a system software (Gilson Unipoint version 5.11). Chromatography was performed on a guard column (10 μm, 4.3 mm×1 cm) and an Inertsil ODS-3 (5 μm, 150×2.3 mm, GL Science, Japan) equilibrated with 10 mM potassium phosphate buffer (pH 6.0) at room temperature. Pteridines were eluted isocratically at a flow rate of 1.2 ml/min and monitored at 350/450 nm (excitation/emission). Pteridine peaks were identified and quantified using authentic pteridines, which were purchased from Dr. B. Schirck's Lab (Jona, Switzerland). Biopterin-glucoside was isolated from Synechococcus sp. PCC 7942 (Y. K. Choi, Y. K. Hwang, Y. H. Kang, Y. S. Park, Chemical structure of 1-O-(L-erythro-biopterin-2′-yl)-alpha-glucose isolated from a cyanobacterium Synechococcus sp. PCC 7942, Pteridines, 12 (2001) 121-125).
To determine whether the presence of dihydrobiopterin, structurally similar to tetrahydrobiopterin, interferes with glucosylation of tetrahydrobiopterin, 1 μM of dihydrobiopterin was added to the same mixture for enzyme reaction as in FIG. 1B, which was then oxidized under acidic condition.
Biological samples contain tetrahydrobiopterin as well as its oxidized forms (dihydrobiopterin and bipterin). In order to quantitatively analyze only tetrahydrobiopterin selectively using BGluT, the BGluT reaction should be specific to tetrahydrobiopterin, without being interfered by its oxidized forms. Using various pteridines (dihydrobiopterin, biopterin, neopterin, tetrahydroneopterin, and isomers thereof) as a substrate, potential inhibitory effect was evaluated. […] It therefore was suspected that dihydrobiopterin might function as a competitive inhibitor in glucosylation of tetrahydrobiopterin by BGluT.
However, when the concentration of dihydrobiopterin is higher than tetrahydrobiopterin, dihydrobiopterin could show inhibitory effects. In order to examine whether dihydrobiopterin interferes with the BGluT reaction, dihydrobiopterin was coincubated under the standard reaction condition with a fixed amount (0.25 μM) of tetrahydrobiopterin, along with increasing concentrations of dihydrobiopterin up to 4-fold (0.05˜1 μM) (see FIG. 4). In FIG. 4, the X-axis represents concentrations of dihydrobiopterin added to the reaction solution and the Y-axis represents peak areas of the glucosylated product produced from tetrahydrobiopterin. The results thereof show means±standard deviations of the peak areas of biopterin-glucoside, which were obtained from triplicate assays. […] In general, the concentrations of the oxidized forms of tetrahydrobiopterin in a biological sample are not higher than that of tetrahydrobiopterin.
In order to examine whether the added dihydrobiopterin has been glucosylated even in small amount, the peak areas of biopterin originated from the dihydrobiopterin (X-axis) were compared with those determined from the same concentration of dihydrobiopterin without enzyme reaction (Y-axis) (FIG. 4 (insert)). The slope obtained from regression line was almost 1.

[1] = Pteridine glycosyltransferase activity with human urine; assay type: biochemical; conditions: 1 μg protein, 10 μl human urine in 100 μl, FIG. 12
Protocol: Also, 1 μg of each protein was added to 100 μl of reaction solution containing 10 μl of human urine instead of tetrahydrobiopterin. The reaction mixture was incubated at for 20 minutes. For CY-49, 500 μM UDP-xylose was added as a substrate; and for other enzymes, UDP-glucose was added. Other reaction conditions were the same as in the above.

[2] = Analysis of protein activity of the recombinant proteins with UDP-glycosides; assay type: biochemical; conditions: for pteridine glycosyltransferase activity (sugar bound to tetrahydrobiopterin): 1 μM tetrahydrobiopterin, 500 μM UDP-glycoside, HPLC, FIG. 10
Protocol: The protein activity was assayed in 100 μl of reaction mixture having the following composition: 50 mM Tris-HCl (pH 7.5), 10 mM MgCl2, 0.2% ascorbic acid, 1 μM tetrahydrobiopterin, 500 μM UDP-glycoside (one of UDP-glucose, UDP-galactose, UDP-xylose, UDP-glucuronic acid, UDP-galacturonic acid, UDP-N-acetylglucosamine, and UDP-N-acetylgalactosamine) and an appropriate amount of the purified recombinant protein. The reaction was performed at 37 for 10-60 minutes depending on an amount of protein. 30 μl of acidic iodine solution (2%/1% KI/I2 in 1 M HCl) was added to the reaction mixture and allowed in darkness for 1 hour for oxidation thereof. The mixture was centrifuged to recover the supernatant, which was then mixed with 10 μl of 5% ascorbic acid. 30 μl of 1N NaOH was added to the resulting mixture for neutralization and then HPLC analysis was carried out.
as §1, with “HPLC” for “The HPLC”, “quantified by” for “quantified”

With `C[C@H](O)[C@H](O)C1=Nc2c(nc(N)[nH]c2=O)NC1` [dihydrobiopterin] the “slope of regression line, biopterin-glucoside peak area against dihydrobiopterin concentration” value (BGluT; 0.25 μM tetrahydrobiopterin, 0.05~1 μM dihydrobiopterin, standard reaction condition, FIG. 4) was “zero”, the “effect of added dihydrobiopterin on glucosylation of tetrahydrobiopterin” value (BGluT; 1 μM dihydrobiopterin added, FIG. 1C) was “no significant difference in the amounts of glucosylated products of tetrahydrobiopterin” and the “slope of regression line, biopterin from dihydrobiopterin with BGluT against without enzyme reaction” value (BGluT; FIG. 4 (insert)) was roughly 1. The “glucosylated product formed from the pteridine as substrate of BGluT” value (“glucosylated product formed” for short) (BGluT) was “a small amount of glucosylated product”.

In the case of `Nc1nc2ncc([C@H](O)[C@H](O)CO)nc2c(=O)[nH]1` [neopterin], the “glucosylated product formed” value (BGluT) is reported as “only dihydrobiopterin among the pteridines showed”.

For `Nc1nc2c(c(=O)[nH]1)NC(C(O)C(O)CO)CN2` (stereo not shown) [tetrahydroneopterin], the “glucosylated product formed” value (BGluT) was “only dihydrobiopterin among the pteridines showed”.

With biopterin the “glucosylated product formed” value (BGluT) was “only dihydrobiopterin among the pteridines showed”.

B1: UICA: recombinant pteridine glycosyltransferase from unidentified wild cyanobacteria A, amino acid SEQ ID NO 4 (protein)
chain: LSRKLLFLSTPVGFLGSGGGGGVELTIYNLARTLNKQGYAVRVVAPEASQLQDIPLITIAGNAQISAQSQDREAPILIPENAVLANMWHYAQQVQNEYDLIVNFAYDWLPFYLTPFFATPVAHLVSMASVSLAMDNIIQKTYRSFPHSLAFHTVTQAETFSLSPPYRRLANGLDVSLYQFRADPSPCLAWVGRIAPEKALEGAIAACQQLGVPLRVFGHISNPLYWQNLQDTYSFDLVDYRGFLPTGSLQKELGDCFGLLMTPGWVEAFGNVAIEALACGVPVVAYRRGGPVEIIEEGKTGFLVEPDSIEGLVTGIKNLDRIDRYSCRAVVEQKYSLEALANRAINWFDEIFARKK
modifications: Unidentified cyanobacteria sp.
In the case of B1, the “HPLC chromatogram of the reaction mixture with human urine” value [1] is reported as “very similar to that of BGluT”, the Substrate for glucosylation [2] is reported as “Glucose” and the “pteridine glycosyltransferase activity (sugar bound to tetrahydrobiopterin)” value [2] is reported as “an activity for binding glucose to tetrahydrobiopterin”.

B2: UICB: recombinant pteridine glycosyltransferase from unidentified wild cyanobacteria B, amino acid SEQ ID NO 5 (protein)
chain: LSRKLLFLSTPVGFLGSGDGGGVELTIYNLARTLNKQGYAVRVAAPEASQLQDIPLITMAGNAQISAQSQGREAPILMPENAVLANMWHYAQQVQKQYDLIVNFAYDWLPFYLTPFFATPVAHLVSMASVSLAMDHINEKTYSNFPHLLAFHTLAQAETFSLSPPYRCLANGLDVSLYQFRDDPSPCLAWVGRIAPEKALEDAIAACQQLGVPLRVFGHISDPLYWQNSQDTYSFDLVDYRGFLPTGSLQKELGDCFGLLMTPRWVEAFGNVAIEALACGVPVVAYRRGGPVEIIEEGKTGFLVEPDSIEGLVTGIKNLDRIDRYSCRAVVEQKYSLEASANRAINWFEEIFARKK
modifications: Unidentified cyanobacteria sp.
In the case of B2, the “HPLC chromatogram of the reaction mixture with human urine” value [1] is reported as “very similar to that of BGluT”, the Substrate for glucosylation [2] is reported as “Glucose” and the “pteridine glycosyltransferase activity (sugar bound to tetrahydrobiopterin)” value [2] is reported as “an activity for binding glucose to tetrahydrobiopterin”.
